Laboratory results: PMC6539678 (International Journal of Molecular Sciences, 2019)
Starred links: 1 amine or outer side, 2 acyl side, 3 side chain; linkers in the order of their positions; H or OH if unused. Non-standard residues stand in square brackets, D forms with d. Residues, ends and D or L forms follow the SMILES beside them. Groups on a side chain read outwards from the residue. *: point of attachment. PEG24 = NCCOCCOCCOCCOCCOCCOCCOCCOCCOCCOCCOCCOCCOCCOCCOCCOCCOCCOCCOCCOCCOCCOCCOCCOCCC(=O)O; X1 = O=C([C@H](Cc1ccc(-n2nnc3c2-c2ccccc2N([*:3])Cc2ccccc2-3)cc1)N[*:1])[*:2]; Pteroyl = Nc1nc2ncc(CNc3ccc(C(=O)*)cc3)nc2c(=O)[nH]1; Biotin = O=C1N[C@H]2[C@H](CS[C@H]2CCCCC(=O)*)N1; γGlu = O=C(O)[C@H](CCC(=O)[*:2])N[*:1]; βAla = NCCC(=O)O

Molecular target: T1, folate receptor alpha (FRα) (Homo sapiens, UniProt P15328)
T1 construct: made in house
T1 sequence (P15328 25-257): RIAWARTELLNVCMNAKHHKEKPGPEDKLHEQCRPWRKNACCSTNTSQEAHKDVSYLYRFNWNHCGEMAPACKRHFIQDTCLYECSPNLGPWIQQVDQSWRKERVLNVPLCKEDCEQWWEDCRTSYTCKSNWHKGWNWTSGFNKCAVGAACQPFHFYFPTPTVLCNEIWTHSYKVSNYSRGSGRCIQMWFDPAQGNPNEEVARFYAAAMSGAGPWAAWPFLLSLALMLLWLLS
Assay: Biolayer interferometry (BLI) binding of folate and folate-peptide conjugates to FRα
Conditions: for kon: pH 7.4, read-out: ka (association rate constant); for koff: pH 7.4, read-out: kd (dissociation rate constant)
Description: All steps performed for purification and refolding of FRα were carried out according to our previous report. However, some different reagents were used. […] The inclusion bodies were solubilized and purified with 8 M urea instead of 6 M guanidine HCl.
The measurement procedure has been reported previously. […] To eliminate errors from non-specific binding of the analyte (FRα) on the SA biosensor chips, reference data with the same concentrations of analyte were also measured.
The obtained binding data were analyzed using a 1:1 local analysis mode applied with association and dissociation step corrections by the BLItz Pro1.2 software (ForteBio). The reference measurements were subtracted during data analysis to determine ka, kd and KD.

[1] = BLI (BLItz), 25 °C, 10 mM PBS pH 7.4, 0.5% BSA, 0.01% Tween 20, ligand immobilized via biotin on streptavidin sensor, 1:1 local analysis, 'Folate' = folate-PEG8-biotin control

| Structure (SMILES) | ka (association rate constant) [1] [M⁻¹ s⁻¹] | kd (dissociation rate constant) [1] [s⁻¹] | kon [M⁻¹ s⁻¹] | koff [s⁻¹] | fold faster association constant (DSEZKAY relative to SEZKA) [fold] | fold faster dissociation constant (DSEZKAY relative to SEZKA) [fold] | fold lower KD (DSEZKAY relative to SEZKA) [fold] |
| --- | --- | --- | --- | --- | --- | --- | --- |
| Nc1nc(=O)c2nc(CNc3ccc(C(=O)N[C@@H](CCC(=O)O)C(=O)O)cc3)cnc2[nH]1 [Folate, reference compound] | 6.74e+06 | 0.00769 | – | – | – | – | – |
| C[C@H](NC(=O)[C@H](CCCCN)NC(=O)[C@H](Cc1ccc(-n2nnc3c2-c2ccccc2N(C(=O)CCNC(=O)CC[C@H](NC(=O)c2ccc(NCc4cnc5nc(N)[nH]c(=O)c5n4)cc2)C(=O)O)Cc2ccccc2-3)cc1)NC(=O)[C@H](CCC(=O)O)NC(=O)[C@H](CO)NC(=O)CCOCCOCCOCCOCCOCCOCCOCCOCCOCCOCCOCCOCCOCCOCCOCCOCCOCCOCCOCCOCCOCCOCCOCCOCCNC(=O)CCCC[C@@H]1SC[C@@H]2NC(=O)N[C@@H]21)C(=O)O [SEZKA] ({Biotin-PEG24}-SE[X1]([βAla-γGlu-Pteroyl])KA-OH; C-terminus assumed) | – | – | 89100 | 8.01e-05 | – | – | – |
| CC[C@H](C)[C@H](NC(=O)[C@H](Cc1ccc(-n2nnc3c2-c2ccccc2N(C(=O)CCNC(=O)CC[C@H](NC(=O)c2ccc(NCc4cnc5nc(N)[nH]c(=O)c5n4)cc2)C(=O)O)Cc2ccccc2-3)cc1)NC(=O)[C@H](Cc1ccccc1)NC(=O)CNC(=O)CCOCCOCCOCCOCCOCCOCCOCCOCCOCCOCCOCCOCCOCCOCCOCCOCCOCCOCCOCCOCCOCCOCCOCCOCCNC(=O)CCCC[C@@H]1SC[C@@H]2NC(=O)N[C@@H]21)C(=O)N[C@@H](CCC(N)=O)C(=O)O [GFZIQ] ({Biotin-PEG24}-GF[X1]([βAla-γGlu-Pteroyl])IQ-OH; C-terminus assumed) | – | – | 411000 | 7.53e-05 | – | – | – |
| C[C@H](NC(=O)[C@H](CCCCN)NC(=O)[C@H](Cc1ccc(-n2nnc3c2-c2ccccc2N(C(=O)CCNC(=O)CC[C@H](NC(=O)c2ccc(NCc4cnc5nc(N)[nH]c(=O)c5n4)cc2)C(=O)O)Cc2ccccc2-3)cc1)NC(=O)[C@H](CCC(=O)O)NC(=O)[C@H](CO)NC(=O)[C@H](CC(=O)O)NC(=O)CCOCCOCCOCCOCCOCCOCCOCCOCCOCCOCCOCCOCCOCCOCCOCCOCCOCCOCCOCCOCCOCCOCCOCCOCCNC(=O)CCCC[C@@H]1SC[C@@H]2NC(=O)N[C@@H]21)C(=O)N[C@@H](Cc1ccc(O)cc1)C(=O)O [DSEZKAY] ({Biotin-PEG24}-DSE[X1]([βAla-γGlu-Pteroyl])KAY-OH; C-terminus assumed) | – | – | 1.1e+06 | 0.000265 | 12 | 3 | 4 |
